Tests used:
Conditions in all cases: incubation time: 72 h
BT-474 = experiment: normalised viability (% of control), CellTiter-Blue; higher = more viable cells (about 100 = DMSO control)
Description: (§1)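 DSRT, CellTiter-Blue viability, 72 h incubation. Signal is normalised to DMSO and benzethonium chloride controls. Value is the normalised response at dose 3.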

BT-549 = experiment: as above
Description: as §1

CAL-120 [1] = experiment: as above
Description: as §1

CAL-148 [2] = experiment: as above
Description: as §1

CAL-51 [3] = experiment: as above
Description: as §1

CAL-85-1 [4] = experiment: as above
Description: as §1

DU-4475 [5] = experiment: as above
Description: as §1

HCC1143 = experiment: as above
Description: as §1

HCC1599 = experiment: as above
Description: as §1

HCC1937 = experiment: as above
Description: as §1

HDQ-P1 [6] = experiment: as above
Description: as §1

Hs578T = experiment: as above
Description: as §1

MDA-MB-231 = experiment: as above
Description: as §1

MDA-MB-436 = experiment: as above
Description: as §1

MDA-MB-453 [7] = experiment: as above
Description: as §1

MDA-MB-468 = experiment: as above
Description: as §1

MFM-223 = experiment: as above
Description: as §1

SK-BR-3 [8] = experiment: as above
Description: as §1

CAL-148 [9] = experiment: as above; remark: listed apart in the source
Description: (§2)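 DSRT, CellTiter-Blue viability, 72 h incubation. Signal is normalised to DMSO and benzethonium chloride controls. Value is the normalised response at dose 7.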

CAL-51 [10] = experiment: as above; remark: listed apart in the source
Description: as §2

CAL-85-1 [11] = experiment: as above; remark: listed apart in the source
Description: as §2

DU-4475 [12] = experiment: as above; remark: listed apart in the source
Description: as §2

HDQ-P1 [13] = experiment: as above; remark: listed apart in the source
Description: as §2

MDA-MB-453 [14] = experiment: as above; remark: listed apart in the source
Description: as §2

CAL-148 [15] = experiment: normalised viability (% of control), CellTiter-Blue; higher = more viable cells (about 100 = DMSO control); remark: listed apart in the source
Outline: (§3)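 Normalised viability is given for a single listed concentration of the series. In 384-well plates, breast cancer cell lines were incubated 72 h with compound, then read with CellTiter-Blue (2 h, 37 °C) at 560/590 nm. Per-plate scaling set vehicle to 100 and a positive kill control to 0, with Z'-factor quality control.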

CAL-51 [16] = experiment: as above; remark: listed apart in the source
Outline: as §3

CAL-85-1 [17] = experiment: as above; remark: listed apart in the source
Outline: as §3

CAL-120 [18] = experiment: drug sensitivity score (DSS), CellTiter-Glo (DSS (AUC-based score)); higher = stronger drug effect (viability inhibition or cytotoxicity); extreme values may be limits of the assay
Outline: (§4)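 Using 20 µl of cell suspension per well, breast cancer cell lines were seeded into 384-well plates pre-loaded with compound at 5 concentrations in 10-fold steps across a compound-specific 10,000-fold range. Incubation lasted 72 h, after which CellTox Green fluorescence at 485/520 nm and then CellTiter-Glo luminescence, following 10 min at room temperature, were recorded. Each plate was normalised to 0.1 % DMSO and a positive kill control before the drug sensitivity score was derived from the area under the fitted dose-response curve.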

CAL-51 [19] = experiment: as above
Outline: as §4

SK-BR-3 [20] = experiment: as above
Outline: as §4

CCN(CC)CCCC(C)Nc1c2ccc(Cl)cc2nc2ccc(OC)cc12 (configuration not stated) [Mepacrine]
Conditions	normalised viability [%]
BT-474, 9.9 nM	113
BT-474, 100 nM	109
BT-549, 9.9 nM	86.1
BT-549, 100 nM	90.3
CAL-51 [3], 0.99 nM	95.9
CAL-51 [3], 10 nM	99.6
CAL-51 [10], 99 nM	96.2
CAL-51 [10], 1000 nM	103
CAL-51 [16], 990 nM	34.9
CAL-51 [16], 10000 nM	12.3
CAL-85-1 [4], 0.99 nM	99
CAL-85-1 [4], 10 nM	92.6
CAL-85-1 [11], 99 nM	97.8
CAL-85-1 [11], 1000 nM	90.3
CAL-85-1 [17], 990 nM	44.1
CAL-85-1 [17], 10000 nM	15.1
CAL-120 [1], 9.9 nM	117
CAL-120 [1], 100 nM	104
CAL-148 [2], 0.99 nM	116
CAL-148 [2], 10 nM	107
CAL-148 [9], 99 nM	122
CAL-148 [9], 1000 nM	81.4
CAL-148 [15], 990 nM	35.4
CAL-148 [15], 10000 nM	12.4
DU-4475 [5], 0.99 nM	83.1
DU-4475 [5], 10 nM	96.4
DU-4475 [12], 99 nM	97.3
DU-4475 [12], 1000 nM	84.3
HCC1143, 9.9 nM	130
HCC1143, 100 nM	106
HCC1599, 9.9 nM	88.2
HCC1599, 100 nM	88.9
HCC1937, 9.9 nM	99.4
HCC1937, 100 nM	87.4
HDQ-P1 [6], 0.99 nM	117
HDQ-P1 [6], 10 nM	114
HDQ-P1 [13], 99 nM	86.9
HDQ-P1 [13], 1000 nM	84.9
Hs578T, 9.9 nM	114
Hs578T, 100 nM	110
MDA-MB-231, 9.9 nM	95.2
MDA-MB-231, 100 nM	89.8
MDA-MB-436, 9.9 nM	108
MDA-MB-436, 100 nM	91.3
MDA-MB-453 [7], 0.99 nM	98.4
MDA-MB-453 [7], 10 nM	100
MDA-MB-453 [14], 99 nM	97.2
MDA-MB-453 [14], 1000 nM	101
MDA-MB-468, 9.9 nM	110
MDA-MB-468, 100 nM	105
MFM-223, 9.9 nM	97
MFM-223, 100 nM	97.9
SK-BR-3 [8], 9.9 nM	99.8
SK-BR-3 [8], 100 nM	91.3

Conditions	drug sensitivity score
CAL-51 [19]	0
CAL-120 [18]	0
SK-BR-3 [20]	0

CC[C@@H]1C(=O)N(C)c2cnc(Nc3ccc(C(=O)NC4CCN(C)CC4)cc3OC)nc2N1C1CCCC1 [BI 2536]
Conditions	normalised viability [%]
BT-474, 10 nM	44.4
BT-549, 10 nM	36.9
CAL-51 [3], 1 nM	89.4
CAL-51 [10], 100 nM	12.1
CAL-51 [16], 1000 nM	8.2
CAL-85-1 [4], 1 nM	90
CAL-85-1 [11], 100 nM	59.4
CAL-85-1 [17], 1000 nM	61.6
CAL-120 [1], 10 nM	34.1
CAL-148 [2], 1 nM	105
CAL-148 [9], 100 nM	28.3
CAL-148 [15], 1000 nM	44.3
DU-4475 [5], 1 nM	91.7
DU-4475 [12], 100 nM	22.3
HCC1143, 10 nM	62.8
HCC1599, 10 nM	90.9
HCC1937, 10 nM	25.9
HDQ-P1 [6], 1 nM	102
HDQ-P1 [13], 100 nM	57.7
Hs578T, 10 nM	83.5
MDA-MB-231, 10 nM	52.6
MDA-MB-436, 10 nM	77.8
MDA-MB-453 [7], 1 nM	83.2
MDA-MB-453 [14], 100 nM	29.9
MDA-MB-468, 10 nM	48.5
MFM-223, 10 nM	41.8
SK-BR-3 [8], 10 nM	15.8

Conditions	drug sensitivity score
CAL-51 [19]	17.7
CAL-120 [18]	11.2
SK-BR-3 [20]	25.7

Source: the supplement of paper PMC4862054
